Laboratory results taken from ChEMBL document CHEMBL5727943, “Composition and methods for inhibiting mammalian sterile 20-like kinase 1” (2020).

Legend:
[1] = target: T1, Serine/threonine-protein kinase 4 (Homo sapiens, UniProt Q13043); assay: (§1) MST1/MST2 Biochemical LanthaScreen Eu Kinase Binding Assay: MST1 and MST2 biochemical LanthaScreen Eu Kinase Binding Assay was based on the binding and displacement of kinase tracer to the kinase of interest. Compounds in 1000×DMSO stock solution was dispensed using automated dispensing system (Labcyte) to 384 well Corning Microplate at 15 nL, 5 uL of Kinase buffer A was added to each well. Plates were shaken and incubated for 1 min to ensure well dissolution of compounds.
T1 sequence (Q13043 whole entry): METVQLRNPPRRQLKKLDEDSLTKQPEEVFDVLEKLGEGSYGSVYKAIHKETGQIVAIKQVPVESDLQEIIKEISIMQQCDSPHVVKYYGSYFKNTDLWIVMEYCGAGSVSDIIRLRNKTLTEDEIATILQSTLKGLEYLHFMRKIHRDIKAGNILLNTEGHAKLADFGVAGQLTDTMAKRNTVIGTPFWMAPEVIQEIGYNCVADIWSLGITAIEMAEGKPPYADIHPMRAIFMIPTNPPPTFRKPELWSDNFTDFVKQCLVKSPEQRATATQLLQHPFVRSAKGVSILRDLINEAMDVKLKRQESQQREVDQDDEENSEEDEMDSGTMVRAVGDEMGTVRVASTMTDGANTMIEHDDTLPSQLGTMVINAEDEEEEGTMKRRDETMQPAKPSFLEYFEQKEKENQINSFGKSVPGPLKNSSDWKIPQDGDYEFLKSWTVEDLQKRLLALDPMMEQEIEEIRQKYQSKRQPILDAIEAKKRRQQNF

[2] = target: T2, Serine/threonine-protein kinase 3 (Homo sapiens, UniProt Q13188); assay: as §1
T2 sequence (Q13188 whole entry): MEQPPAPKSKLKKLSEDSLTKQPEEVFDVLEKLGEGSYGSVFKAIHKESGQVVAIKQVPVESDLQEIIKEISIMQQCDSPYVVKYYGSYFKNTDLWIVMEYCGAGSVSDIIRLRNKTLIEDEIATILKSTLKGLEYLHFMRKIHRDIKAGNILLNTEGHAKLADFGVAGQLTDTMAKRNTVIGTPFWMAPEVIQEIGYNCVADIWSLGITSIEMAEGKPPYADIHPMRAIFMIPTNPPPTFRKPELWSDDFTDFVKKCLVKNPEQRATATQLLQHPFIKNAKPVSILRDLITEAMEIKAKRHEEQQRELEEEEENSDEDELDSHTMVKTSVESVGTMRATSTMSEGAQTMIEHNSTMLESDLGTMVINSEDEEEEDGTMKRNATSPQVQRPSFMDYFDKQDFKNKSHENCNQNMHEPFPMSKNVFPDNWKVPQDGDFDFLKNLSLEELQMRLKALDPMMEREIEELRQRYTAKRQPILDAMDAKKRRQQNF

- IC50 [1]: < 100 nM
- IC50 [2]: < 100 nM
SMILES: CCOc1cc2ncc(C#N)c(Nc3ccc(OCc4ncccc4C)cc3Cl)c2cc1NC(=O)/C=C/CN(C)C
